Data from PubChem BioAssay AID2060504 (Molecular Pharmacology Branch, DTP, NCI, 2025).

System: 636577-100-R-J1-PDC complex spheroid viability
Experiment: Anticancer human tumor 636577-100-R-J1-PDC patient-derived endometrial adenocarcinoma cell line growth inhibition [GQUAD]
Conditions: for IC50: curve of first compound; for viability, T/C: stronger effect = lower value
Outline: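 Multi-cell-type spheroids of tumor cells with HUVEC and mesenchymal stem cells, treated with drug combinations. Concentrations descend in half-log steps from near clinical Cmax, or from 10 microM where Cmax is unknown; viability read-out.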
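Note: viability read after seven days of drug exposure.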
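Throughout, for viability, T/C: luminescence signal used as a proxy for viable cells; 100% = DMSO vehicle control wells.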

COc1ncnc(C2CC2)c1-c1ncc2cnn(Cc3ccc(-c4nc(C(F)(F)F)cn4C(C)C)cc3)c2n1 + CN(C)c1ccc(Nc2c3ccc(NC(=O)CCN4CCCC4)cc3nc3cc(NC(=O)CCN4CCCC4)ccc23)cc1 gave an IC50 (second compound 0.0316 µM) greater than 10000 nM, an IC50 (second compound 0.1 µM) greater than 10000 nM and an IC50 (second compound 0.316 µM) greater than 10000 nM. The IC50 (second compound 1 µM) was 91.6 nM, the IC50 (second compound 3.16 µM) was less than 31.6 nM and the IC50 (second compound 10 µM) was less than 31.6 nM. The viability, T/C (second compound 0.0316 µM, first compound 0.0316 µM) was 79.6%, the viability, T/C (second compound 0.0316 µM, first compound 0.1 µM) was 62.9% and the viability, T/C (second compound 0.0316 µM, first compound 0.316 µM) was 69.6%. For the same molecule, the viability, T/C (second compound 0.0316 µM, first compound 1 µM) was 64%, the viability, T/C (second compound 0.0316 µM, first compound 3.16 µM) was 56.9% and the viability, T/C (second compound 0.0316 µM, first compound 10 µM) was 57.4%. The viability, T/C (second compound 0.1 µM, first compound 0.0316 µM) was 69.4%, the viability, T/C (second compound 0.1 µM, first compound 0.1 µM) was 47.5% and the viability, T/C (second compound 0.1 µM, first compound 0.316 µM) was 66%. For the same molecule, the viability, T/C (second compound 0.1 µM, first compound 1 µM) was 39.1%, the viability, T/C (second compound 0.1 µM, first compound 3.16 µM) was 63% and the viability, T/C (second compound 0.1 µM, first compound 10 µM) was 68.8%. The viability, T/C (second compound 0.316 µM, first compound 0.0316 µM) was 71.5%, the viability, T/C (second compound 0.316 µM, first compound 0.1 µM) was 61.9% and the viability, T/C (second compound 0.316 µM, first compound 0.316 µM) was 58.1%. It also gave a viability, T/C (second compound 0.316 µM, first compound 1 µM) of 54.4%, a viability, T/C (second compound 0.316 µM, first compound 3.16 µM) of 64.2% and a viability, T/C (second compound 0.316 µM, first compound 10 µM) of 48.9%. It also gave a viability, T/C (second compound 1 µM, first compound 0.0316 µM) of 57.2%, a viability, T/C (second compound 1 µM, first compound 0.1 µM) of 52.5% and a viability, T/C (second compound 1 µM, first compound 0.316 µM) of 49.2%. The viability, T/C (second compound 1 µM, first compound 1 µM) was 25.7%, the viability, T/C (second compound 1 µM, first compound 3.16 µM) was 54.3% and the viability, T/C (second compound 1 µM, first compound 10 µM) was 48.9%. It also gave a viability, T/C (second compound 3.16 µM, first compound 0.0316 µM) of 32.4%, a viability, T/C (second compound 3.16 µM, first compound 0.1 µM) of 31.1% and a viability, T/C (second compound 3.16 µM, first compound 0.316 µM) of 36.2%. For the same molecule, the viability, T/C (second compound 3.16 µM, first compound 1 µM) was 30.8%, the viability, T/C (second compound 3.16 µM, first compound 3.16 µM) was 26% and the viability, T/C (second compound 3.16 µM, first compound 10 µM) was 17.8%. It also gave a viability, T/C (second compound 10 µM, first compound 0.0316 µM) of 4.33%, a viability, T/C (second compound 10 µM, first compound 0.1 µM) of 4.66% and a viability, T/C (second compound 10 µM, first compound 0.316 µM) of 3.91%. It also gave a viability, T/C (second compound 10 µM, first compound 1 µM) of 3.97%, a viability, T/C (second compound 10 µM, first compound 3.16 µM) of 2.12% and a viability, T/C (second compound 10 µM, first compound 10 µM) of 0.46%.
